Results published in publication PMC10854894, “A New Benzo[6,7]oxepino[3,2-b] Pyridine Derivative Induces Apoptosis in Canine Mammary Cancer Cell Lines” (Animals : an Open Access Journal from MDPI, 2024).
Like-named read-outs stand apart in the source and are kept apart here.

Key:
Type in all cases: cell-based, canine
[1] = tested on: CMGT071020 cells; assay: MTT cell proliferation/cytotoxicity assay; details: Canis lupus familiaris, read-out: Half-Maximal Inhibitory Concentration (IC50)
Procedure: The cytotoxic effects of the three BZOP derivatives were studied via the 3-(4,5-Dimethyl-2-thiazolyl)-2,5-diphenyl-2H-tetrazolium bromide (MTT) assay. The REM134, CMGT071020, and MDCK cell lines were seeded at a density of 5 × 10^3 cells/well in 96-well plates and allowed to grow for 24 h. They were then treated with the three BZOP derivatives at various concentrations (0–300 µM) for 24 or 48 h, whereas cells treated with the culture medium containing 0.1% dimethyl sulfoxide (DMSO) were used as a negative control as the compounds were dissolved in DMSO. Subsequently, the cells were incubated with 10 µL of an MTT solution (Sigma, St. Louis, MO, USA) for 4 h. After the incubation with MTT solution, 100 µL of a solubilization solution was added to dissolve water-insoluble purple formazan crystals, and the plate was incubated overnight at 37 °C in 5% CO2. The absorbance of the formazan solution was measured using a Synergy H1 hybrid multi-mode microplate reader (BioTek, Winooski, VT, USA) at 570 nm. The experiment was conducted with four replicates, and the relative cell viability (%) of the treated cells was expressed as a percentage relative to the untreated control cells, which were considered to have 100% viability.

[2] = tested on: CMGT071020 cells; assay: Wound healing assay; details: CMGT071020, 100 or 200 µM, 12 or 24 h, vs untreated control
Procedure: (§1) The effect of MPOBA on cell migration was examined using a two-dimensional wound healing assay. The REM134 and CMGT071020 cell lines were seeded in a 6-well plate at a density of 5 × 10^5 cells/well and allowed to incubate for 24 h until they reached 100% confluence. The cells were scratched using a sterile 1 mL pipette tip and then treated with MPOBA at concentrations ranging from 0 to 200 µM for 24 h. Images of the scratches were captured at 0, 12, and 24 h post-treatment using phase-contrast microscopy. The wound areas were checked and measured using the NIS-Elements D imaging software program version 5.2 (Nikon, Tokyo, Japan). The cell migration ability was calculated as a percentage of the area covered by cells at 24 h compared to the initial wound area at 0 h. The experiments were repeated four times.

[3] = tested on: REM134 cells; assay: Wound healing assay; details: REM134, 100 or 200 µM, 12 or 24 h, vs untreated control
Procedure: as §1

[4] = tested on: CMGT071020 cells; assay: Relative mRNA expression by qRT-PCR
Procedure: (§2) After the treatment of the cells with MPOBA at varying concentrations from 0 to 200 µM for 48 h, the total RNA was isolated using a GeneJet RNA Purification kit (Thermo Fisher Scientific, Waltham, MA, USA) according to the manufacturer’s protocol for adherent tissue culture cells using the spin-column method. The RNA’s concentration and purity (A260/A280 ratio) were spectrophotometrically determined using a NanoDrop One/OneC Microvolume UV-Vis Spectrophotometer (Thermo Fisher Scientific, Waltham, MA, USA). To remove genomic DNA contamination, the samples were treated with RQ1 RNase-Free DNase (Promega, Madison, WI, USA) according to the manufacturer’s instructions. First-strand cDNA was obtained using a SuperScript® III First-Strand Synthesis kit for reverse-transcription polymerase chain reaction (RT-PCR) (Invitrogen, Carlsbad, CA, USA) according to the manufacturer’s protocol. Briefly, total RNA (1 μg), oligo (dT) primers (50 µM), a dNTP mix (10 mM), the cDNA synthesis mix, and nuclease-free water were added to obtain a final volume of 20 µL. PCR amplification was performed using a G-Storm GS482 PCR thermal cycler (Gene Technologies, Somerset, UK) with the following reaction profile: 65 °C for 5 min, 50 °C for 50 min, 85 °C for 5 min, and 37 °C for 5 min. The relative mRNA expression levels of canine SNAIL, SLUG, TWIST, E-cadherin, N-cadherin, TP53, EGFR, BAX, and BCL-2 were normalized to canine glyceraldehyde 3-phosphate dehydrogenase (GAPDH). The relative mRNA expression levels were calculated using the 2^–∆∆ Cq method. The transcriptional levels of all genes were determined in four replicates via qRT-PCR using a CFX 96 Touch real-time PCR detection system (Bio-Rad, Hercules, CA, USA). The qRT-PCR was performed using a reaction mixture containing 2 μL of the cDNA template, 10 μL of the iTaq Universal SYBR Green Supermix (Bio-Rad, Hercules, CA, USA), and 1 μL of each primer. The qRT-PCR protocol for the SNAIL, SLUG, TWIST, EGFR, TP53, BAX, BCL-2, and GAPDH genes was carried out as follows: initial denaturation at 94 °C for 3 min, denaturation at 94 °C for 15 s, annealing at 60 °C for 30 s, and extension at 72 °C for 1 min (40 cycles), and dissociation curves were generated between 65 °C and 95 °C to assess the specificity of the amplicons. The qRT-PCR protocol for E-cadherin and N-cadherin was carried out according to Yu et al..

[5] = tested on: REM134 cells; assay: Relative mRNA expression by qRT-PCR
Procedure: as §2

[6] = tested on: CMGT071020 cells; assay: Morphological analysis, phase-contrast microscopy; details: CMGT071020, 50, 100 or 200 µM, 48 h
Procedure: (§3) To investigate the morphological changes of the two CMC cell lines during the treatment with MPOBA, they were cultured in a 6-well plate at a density of 2 × 10^5 cells/well and allowed to incubate for 24 h until they reached 70–80% confluence. They were subsequently treated with MPOBA at varying concentrations from 0 to 200 µM for 48 h. Images of the cells were captured using a phase-contrast inverted microscope (Nikon, Tokyo, Japan) at 40× magnification.

[7] = tested on: REM134 cells; assay: Morphological analysis, phase-contrast microscopy; details: REM134, 50, 100 or 200 µM, 48 h
Procedure: as §3

[8] = CMGT071020, 200 µM, 48 h, vs control
[9] = REM134, 200 µM, 48 h, vs control
[10] = REM134, 48 h, treated vs untreated

## Cc1ncccc1Oc1ccccc1C=O [MPOBA, 2-((2-methylpyridin-3-yl)oxy)benzaldehyde]
[1]; CMGT071020, 24 h
  IC50: > 300 µM
[1]; CMGT071020, 48 h
  IC50: 104 µM
[2]
  cell migration (wound closure): significant decline in cell migration
[3]
  cell migration (wound closure): significant decline in cell migration
[4]; [8]
  BAX mRNA expression level: dramatically increased
  BCL-2 mRNA expression level: significantly decreased
  TP53 mRNA expression level: significantly increased
[4]; CMGT071020, 48 h, treated vs untreated
  TWIST mRNA expression level: not significantly different
[4]; CMGT071020, 48 h, vs control
  E-cadherin mRNA expression level: upregulation
  EGFR mRNA expression level: significantly decreased
  N-cadherin mRNA expression level: significant downregulation
  SLUG mRNA expression level: significant downregulation
  SNAIL mRNA expression level: significant downregulation
[5]; [9]
  BAX mRNA expression level: dramatically increased
  BCL-2 mRNA expression level: significantly decreased
  TP53 mRNA expression level: significantly increased
[5]; [10]
  SLUG mRNA expression level: not significantly different
  TWIST mRNA expression level: not significantly different
[5]; REM134, 48 h, vs control
  E-cadherin mRNA expression level: upregulation
  EGFR mRNA expression level: significantly decreased
  N-cadherin mRNA expression level: significant downregulation
  SNAIL mRNA expression level: significant downregulation
[6]
  cell morphology: reduced in cell size, cell shrinkage, rounding, vacuolation, and a loss of cell-to-cell adhesion
[7]
  cell morphology: reduced in cell size, cell shrinkage, rounding, vacuolation, and a loss of cell-to-cell adhesion
